Laboratory results from US10787452B2 (Vertex Pharmaceuticals Incorporated, priority 2012, dated 2020).

Test system: HCT116 colorectal cancer cells
Assay: Cisplatin sensitization assay (96 h cell viability MTS);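 note: compound concentration needed to lower the Cisplatin-alone IC50 by a set fold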
Assay type: cell-based
Conditions: 96 h MTS, compound plus Cisplatin
In short: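 Full-matrix combination: compound × cisplatin, 2-fold dilutions from 10 μM top final, co-added; 96 h, 37° C, 5% CO2; MTS read-out after 1 h.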

| SMILES | Cisplatin Sensitization Assay |
| --- | --- |
| COCCN1CCN(c2c(F)cncc2NC(=O)c2c(N)nn3cc(F)cnc23)CC1 [I-N-127, 2-amino-6-fluoro-N-(5-fluoro-4-(4-(2-methoxyethyl)piperazin-1-yl)pyridin-3-yl)pyrazolo[1,5-a]pyrimidine-3-carboxamide] | +++ (Compounds with a Cisplatin sensitization value of <0.02 μM are marked with “+++.”) |
| CN1CCC(C(=O)N2CCN(c3c(F)cncc3NC(=O)c3c(N)nn4cc(F)cnc34)CC2)CC1 [I-N-128, 2-amino-6-fluoro-N-(5-fluoro-4-(4-(1-methylpiperidine-4-carbonyl)piperazin-1-yl)pyridin-3-yl)pyrazolo[1,5-a]pyrimidine-3-carboxamide] | +++ (Compounds with a Cisplatin sensitization value of <0.02 μM are marked with “+++.”) |
| Nc1nn2cc(F)cnc2c1C(=O)Nc1cncc(F)c1N1CCN(C(=O)C2CN3CCC2CC3)CC1 (centres unmarked) [I-N-130, 2-amino-6-fluoro-N-(5-fluoro-4-(4-(quinuclidine-3-carbonyl)piperazin-1-yl)pyridin-3-yl)pyrazolo[1,5-a]pyrimidine-3-carboxamide] | ++ (Compounds with a Cisplatin sensitization value >0.02 μM but <0.2 μM are marked with “++.”) |
| CN1CC[C@@H](OC2CCN(c3ccncc3NC(=O)c3c(N)nn4cc(F)cnc34)CC2)C1 [I-N-131] | +++ (Compounds with a Cisplatin sensitization value of <0.02 μM are marked with “+++.”) |
| CN1CC[C@@H](OC2CCN(c3c(F)cncc3NC(=O)c3c(N)nn4cc(F)cnc34)CC2)C1 [I-N-132, (R)-2-amino-6-fluoro-N-(5-fluoro-4-(4-((1-methylpyrrolidin-3-yl)oxy)piperidin-1-yl)pyridin-3-yl)pyrazolo[1,5-a]pyrimidine-3-carboxamide] | +++ (Compounds with a Cisplatin sensitization value of <0.02 μM are marked with “+++.”) |
| CN1CCN(c2ccncc2NC(=O)c2c(N)nn3cc(F)cnc23)CC12CCOCC2 [I-N-133, 2-amino-6-fluoro-N-(4-(1-methyl-9-oxa-1,4-diazaspiro[5.5]undecan-4-yl)pyridin-3-yl)pyrazolo[1,5-a]pyrimidine-3-carboxamide] | ++ (Compounds with a Cisplatin sensitization value >0.02 μM but <0.2 μM are marked with “++.”) |
| Nc1nn2cc(F)cnc2c1C(=O)Nc1cncc(F)c1N1CCN(C(=O)C23CCN(CC2)CC3)CC1 [I-N-134, 2-amino-6-fluoro-N-(5-fluoro-4-(4-(quinuclidine-4-carbonyl)piperazin-1-yl)pyridin-3-yl)pyrazolo[1,5-a]pyrimidine-3-carboxamide] | + (Compounds with a Cisplatin sensitization value >0.2 μM but <5 μM are marked with “+.”) |
| Nc1nn2cc(F)cnc2c1C(=O)Nc1cncc(F)c1N1CCN2CCOC[C@H]2C1 [I-N-135, (R)-2-amino-6-fluoro-N-(5-fluoro-4-(hexahydropyrazino[2,1-c][1,4]oxazin-8(1H)-yl)pyridin-3-yl)pyrazolo[1,5-a]pyrimidine-3-carboxamide] | +++ (Compounds with a Cisplatin sensitization value of <0.02 μM are marked with “+++.”) |
| Nc1nn2cc(F)cnc2c1C(=O)Nc1cnccc1N1CCN2C(=O)COCC2C1 (centres unmarked) [I-N-136, 2-amino-6-fluoro-N-(4-(4-oxohexahydropyrazino[2,1-c][1,4]oxazin-8(1H)-yl)pyridin-3-yl)pyrazolo[1,5-a]pyrimidine-3-carboxamide] | ++ (Compounds with a Cisplatin sensitization value >0.02 μM but <0.2 μM are marked with “++.”) |
| Nc1nn2cc(F)cnc2c1C(=O)Nc1cncc(F)c1N1CCN2CCOC[C@@H]2C1 [I-N-137, (S)-2-amino-6-fluoro-N-(5-fluoro-4-(hexahydropyrazino[2,1-c][1,4]oxazin-8(1H)-yl)pyridin-3-yl)pyrazolo[1,5-a]pyrimidine-3-carboxamide] | ++ (Compounds with a Cisplatin sensitization value >0.02 μM but <0.2 μM are marked with “++.”) |
| CN1CCN(c2c(F)cncc2NC(=O)c2c(N)nn3cc(C(C)(C)C#N)cnc23)CC1 [I-N-138, 2-amino-6-(2-cyanopropan-2-yl)-N-(5-fluoro-4-(4-methylpiperazin-1-yl)pyridin-3-yl)pyrazolo[1,5-a]pyrimidine-3-carboxamide] | ++ (Compounds with a Cisplatin sensitization value >0.02 μM but <0.2 μM are marked with “++.”) |
| CC(C)(O)CN1CCN(c2c(F)cncc2NC(=O)c2c(N)nn3cc(F)cnc23)CC1 [I-N-139, 2-amino-6-fluoro-N-(5-fluoro-4-(4-(2-hydroxy-2-methylpropyl)piperazin-1-yl)pyridin-3-yl)pyrazolo[1,5-a]pyrimidine-3-carboxamide] | +++ (Compounds with a Cisplatin sensitization value of <0.02 μM are marked with “+++.”) |
| CN1CCN(C(=O)N2CCN(c3c(F)cncc3NC(=O)c3c(N)nn4cc(F)cnc34)CC2)CC1 [I-N-140, 2-amino-6-fluoro-N-(5-fluoro-4-(4-(4-methylpiperazine-1-carbonyl)piperazin-1-yl)pyridin-3-yl)pyrazolo[1,5-a]pyrimidine-3-carboxamide] | +++ (Compounds with a Cisplatin sensitization value of <0.02 μM are marked with “+++.”) |
| Nc1nn2cc(F)cnc2c1C(=O)Nc1cnccc1N1CCOCC1 [I-N-141, 2-amino-6-fluoro-N-(4-morpholinopyridin-3-yl)pyrazolo[1,5-a]pyrimidine-3-carboxamide] | +++ (Compounds with a Cisplatin sensitization value of <0.02 μM are marked with “+++.”) |
| CC(C)(C#N)c1cnc2c(C(=O)Nc3cnccc3N3CCN(C4COC4)CC3)c(N)nn2c1 [I-N-142, 2-amino-6-(2-cyanopropan-2-yl)-N-(4-(4-(oxetan-3-yl)piperazin-1-yl)pyridin-3-yl)pyrazolo[1,5-a]pyrimidine-3-carboxamide] | ++ (Compounds with a Cisplatin sensitization value >0.02 μM but <0.2 μM are marked with “++.”) |
| CC(C#N)c1cnc2c(C(=O)Nc3cnccc3N3CCN(C4COC4)CC3)c(N)nn2c1 (centres unmarked) [I-N-143, 2-amino-6-(1-cyanoethyl)-N-(4-(4-(oxetan-3-yl)piperazin-1-yl)pyridin-3-yl)pyrazolo[1,5-a]pyrimidine-3-carboxamide] | ++ (Compounds with a Cisplatin sensitization value >0.02 μM but <0.2 μM are marked with “++.”) |
| CC(C)(C#N)c1cnc2c(C(=O)Nc3cncc(F)c3N3CCN(C4COC4)CC3)c(N)nn2c1 [I-N-144] | +++ (Compounds with a Cisplatin sensitization value of <0.02 μM are marked with “+++.”) |
| CN(C)S(=O)(=O)C1CCN(c2c(F)cncc2NC(=O)c2c(N)nn3cc(F)cnc23)CC1 [I-N-146, 2-amino-N-(4-(4-(N,N-dimethylsulfamoyl)piperidin-1-yl)-5-fluoropyridin-3-yl)-6-fluoropyrazolo[1,5-a]pyrimidine-3-carboxamide] | +++ (Compounds with a Cisplatin sensitization value of <0.02 μM are marked with “+++.”) |
| Nc1nn2cc(F)cnc2c1C(=O)Nc1cncc(F)c1N1CCC(N2CCCC2=O)CC1 [I-N-147, 2-amino-6-fluoro-N-(5-fluoro-4-(4-(2-oxopyrrolidin-1-yl)piperidin-1-yl)pyridin-3-yl)pyrazolo[1,5-a]pyrimidine-3-carboxamide] | +++ (Compounds with a Cisplatin sensitization value of <0.02 μM are marked with “+++.”) |
| CN1CCC(N(C)S(=O)(=O)C2CCN(c3c(F)cncc3NC(=O)c3c(N)nn4cc(F)cnc34)CC2)CC1 [I-N-148, 2-amino-6-fluoro-N-(5-fluoro-4-(4-(N-methyl-N-(1-methylpiperidin-4-yl)sulfamoyl)piperidin-1-yl)pyridin-3-yl)pyrazolo[1,5-a]pyrimidine-3-carboxamide] | +++ (Compounds with a Cisplatin sensitization value of <0.02 μM are marked with “+++.”) |
| Nc1nn2cc(F)cnc2c1C(=O)Nc1cncc(F)c1N1CCC(CN2CCOCC2)CC1 [I-N-149, 2-amino-6-fluoro-N-(5-fluoro-4-(4-(morpholinomethyl)piperidin-1-yl)pyridin-3-yl)pyrazolo[1,5-a]pyrimidine-3-carboxamide] | +++ (Compounds with a Cisplatin sensitization value of <0.02 μM are marked with “+++.”) |
| CN1CCN(CC2CCN(c3c(F)cncc3NC(=O)c3c(N)nn4cc(F)cnc34)CC2)CC1 [I-N-150, 2-amino-6-fluoro-N-(5-fluoro-4-(4-((4-methylpiperazin-1-yl)methyl)piperidin-1-yl)pyridin-3-yl)pyrazolo[1,5-a]pyrimidine-3-carboxamide] | +++ (Compounds with a Cisplatin sensitization value of <0.02 μM are marked with “+++.”) |
| CN1CCN(C2CCN(c3c(F)cncc3NC(=O)c3c(N)nn4cc(F)cnc34)CC2)C(=O)C1 [I-N-151, 2-amino-6-fluoro-N-(5-fluoro-4-(4-(4-methyl-2-oxopiperazin-1-yl)piperidin-1-yl)pyridin-3-yl)pyrazolo[1,5-a]pyrimidine-3-carboxamide] | + (Compounds with a Cisplatin sensitization value >0.2 μM but <5 μM are marked with “+.”) |
| Nc1nn2cc(F)cnc2c1C(=O)Nc1cnccc1N1CCCCC1 [I-N-152, 2-amino-6-fluoro-N-(4-(piperidin-1-yl)pyridin-3-yl)pyrazolo[1,5-a]pyrimidine-3-carboxamide] | +++ (Compounds with a Cisplatin sensitization value of <0.02 μM are marked with “+++.”) |
| CN(C)CC(=O)N1CCN(c2c(F)cncc2NC(=O)c2c(N)nn3cc(F)cnc23)CC1 [I-N-153, 2-amino-N-(4-(4-(2-(dimethylamino)acetyl)piperazin-1-yl)-5-fluoropyridin-3-yl)-6-fluoropyrazolo[1,5-a]pyrimidine-3-carboxamide] | ++ (Compounds with a Cisplatin sensitization value >0.02 μM but <0.2 μM are marked with “++.”) |
| CN1CCC(OC2CCN(c3ccncc3NC(=O)c3c(N)nn4cc(F)cnc34)CC2)CC1 [I-N-154, 2-amino-6-fluoro-N-(4-(4-((1-methylpiperidin-4-yl)oxy)piperidin-1-yl)pyridin-3-yl)pyrazolo[1,5-a]pyrimidine-3-carboxamide] | +++ (Compounds with a Cisplatin sensitization value of <0.02 μM are marked with “+++.”) |
